For orientation: IC50 means the concentration needed to halve the response being measured.

Drawing on ChEMBL document CHEMBL6177942, “Recent advances of selenized tubulin inhibitors in cancer therapy” (Bioorg Med Chem Lett, 2025), this text covers IC50 for 11 compounds.

Data set [1] relates to HCT-116. The data set is described as follows: Antiproliferative activity against human HCT-116 cells assessed as reduction in cell viability incubated for 48 hrs by MTT assay. It counts as functional, cell-based. The note with it: HCT-116, 48 h.
Data set [2] concerns HepG2. The data set is described as follows: Antiproliferative activity against human HepG2 cells assessed as reduction in cell viability incubated for 48 hrs by MTT assay. The note with it: HepG2, 48 h. The class given is functional, cell-based. A general note: Formazan colour is commonly taken as a measure of viable cells.
In data set [3] the test system is A549. The data set is described as follows: Antiproliferative activity against human A549 cells assessed as reduction in cell viability incubated for 48 hrs by MTT assay. It counts as functional, cell-based. The note with it: A549, 48 h.
Data set [4] has as its system RKO. The data set is described as follows: Antiproliferative activity against human RKO cells assessed as reduction in cell viability incubated for 48 hrs by MTT assay. It counts as functional, cell-based.
The subject of data set [5] is MDA-MB-231. The data set can be described thus: Antiproliferative activity against human MDA-MB-231 cells assessed as reduction in cell viability incubated for 48 hrs by MTT assay. The class given is functional, cell-based. The note with it: MDA-MB-231, 48 h.
In data set [6] the test system is HeLa. The data set is described as follows: Antiproliferative activity against human HeLa cells assessed as reduction in cell viability incubated for 48 hrs by MTT assay. The class given is functional, cell-based.
Data set [7] has as its system SGC-7901. The data set is described as follows: Antiproliferative activity against human SGC-7901 cells assessed as reduction in cell viability by MTT assay. It counts as functional, cell-based.
Data set [8] has as its system KB. The data set can be described thus: Antiproliferative activity against human KB cells assessed as reduction in cell viability by MTT assay. The class given is functional, cell-based.
The test system of data set [9] is HT-1080. The data set can be described thus: Antiproliferative activity against human HT-1080 cells assessed as reduction in cell viability by MTT assay. It counts as functional, cell-based.
Data set [10] has as its system RKO. The data set is described as follows: Antiproliferative activity against human RKO cells assessed as reduction in cell growth measured for 48 hrs by MTT assay. The note with it: pooled result: one value given for 6 cell lines, strains, targets or settings. The class given is functional, cell-based.
Data set [11] relates to MCF7. The data set is described as follows: Antiproliferative activity against human MCF7 cells assessed as reduction in cell viability incubated for 72 hrs by MTT assay. The class given is functional, cell-based. The note with it: MCF7, 72 h.
For data set [12], the system named is MDA-MB-231. The data set can be described thus: Antiproliferative activity against human MDA-MB-231 cells assessed as reduction in cell viability incubated for 72 hrs by MTT assay. The class given is functional, cell-based. The note with it: MDA-MB-231, 72 h.
Data set [13] relates to NCI/ADR-RES. The data set is described as follows: Antiproliferative activity against human MCF7ADR cells assessed as reduction in cell viability incubated for 72 hrs by MTT assay. The class given is functional, cell-based.
Data set [14] is described as follows: Antiproliferative activity against human MCF-10A cells assessed as reduction in cell viability incubated for 72 hrs by MTT assay. The class given is toxicity, cell-based.

Turning to `COc1cc(C(=O)/C=C/c2c[nH]c3ccccc23)cc([Se]C)c1OC`, the IC50 in data set [1], in data set [2], in [3], in data set [4], in data set [5] and in data set [6] was 29 nM throughout.

For the compound `COc1ccc([Se]c2c(C)[nH]c3c(OC)c(OC)c(OC)cc23)cc1O`, the figures for the IC50 in data set [7], in [8] and in [9] were 54 nM, 25 nM and 14 nM, respectively.

Take `COc1ccc([Se]c2c[nH]c3c(OC)c(OC)c(OC)cc23)cc1O`: the figures for the IC50 in data set [7], in [8] and in data set [9] were 220 nM, 640 nM and 1000 nM, respectively.

For the compound `CN(c1ccc([Se]C#N)cc1)c1nc(Cl)nc2ccccc12`, the IC50 in data set [10] came to 3.39 nM.

Consider `COc1nc(N(C)c2ccc([Se]C)cc2)c2ccccc2n1`, for which the IC50 in [10] is 4.78 nM.

As to `Cc1cc([Se]C#N)ccc1N(C)c1nc(Cl)nc2ccccc12`, in [10], the IC50 is 37.9 nM.

Take `C[Se]c1ccc(N(C)c2nc(=O)[nH]c3ccccc23)cc1`: in [10], the IC50 turned out to be 17.4 nM.

For the compound `COc1ccc([Se](=O)c2cc(OC)c(OC)c(OC)c2)cc1O` (stereo not given), the half-inhibitory concentration (IC50) in data set [11] was 25 nM; in data set [12], 6.3 nM; in data set [13], 26.3 nM. Further, the IC50 at 72 h in data set [14] amounted to 131 nM.

For `C[Se]c1ccc(N(C)c2nc(Cl)nc3ccccc23)cc1`, the IC50 in [10] is 2.77 nM.

For the compound `Cc1cc(N(C)c2nc(Cl)nc3ccccc23)ccc1[Se]C#N`, in data set [10], the IC50 worked out at 6.01 nM.

For `COc1ccc(/C=C\c2cc(OC)c(OC)c(OC)c2)cc1O` [COMBRETASTATIN A4], the IC50 in data set [7] came out at 11 nM; in data set [8] it was 4 nM; in [9], 11 nM.
